≈ marks a conversion by molar mass, not a printed value. Read-outs that look alike come from different tables or passages of the source.
Experiments:
ΔF508 CFTR = target: T1, ΔF508 CFTR (Homo sapiens, UniProt P13569, DEL508-508); assay: TECC (transepithelial clamp circuit) in primary CF-derived HBE cells; assay type: cell-based; conditions: for Emax / EC50: primary ΔF508 homozygous HBE cells, 24 h incubation, with GLPG2222; for Emax: read-out: TECC HBE with GLPG2222 % max activation; for EC50: read-out: TECC HBE with GLPG2222 EC50
T1 construct: host or cells: CFBE41o- TetON cells, expression induced with doxycycline
Description: Bronchial epithelial cells isolated from the lungs of patients with CF homozygous for the ΔF508 CFTR mutation were obtained from McGill University (Montreal, QC, Canada) or the University of North Carolina (Chapel Hill, NC, United States). Cells were isolated from lungs obtained from donors undergoing planned transplantation. These primary cells were cultured directly on type IV collagen-coated polycarbonate Transwell supports with a diameter of 6.5 mm and pore size of 0.4 μm (Costar, #3397) for 18–25 days in an air–liquid interface, essentially as previously described for TECC.[23]
Twenty-four hours prior to the electrophysiological recording, corrector and/or potentiator compounds were added on both the apical and basolateral sides. TECC recordings were performed by using the TECC instrument developed and sold by EP Design (Bertem, Belgium). During the recording, the epithelial cells were bathed in a NaCl-Ringer solution (120 mM NaCl, 20 mM HEPES, 1.2 mM CaCl2, 1.2 mM MgCl2, 0.8 mM KH2PO4, 0.8 mM K2HPO4, 5 mM glucose, pH 7.4) on both the basolateral (640 μL) and the apical (160 μL) sides and kept at 37 °C. Corrector and potentiator compounds were readded at the same concentration used during the 24 h pretreatment. Apical amiloride was used to inhibit the endogenous ENaC currents (100 μM), while forskolin (10 μM) was applied on both the apical and basolateral sides to stimulate CFTR. Measurements were done during a 20 min time frame with recordings every 2 min. The transepithelial potential and transepithelial resistance were measured in an open circuit and transformed to Ieq using Ohm’s law. The maximal increase in Ieq (ΔIeq, the difference in current before and after forskolin or potentiator treatment) was used as a measure for the increased CFTR activity. EC50 values were generated by measuring the impact of different concentrations of compounds on ΔIeq in primary cells. For this purpose, each transwell was treated with a different compound concentration. CFTRInh-172 was added apically at 10 μM to assess the specificity of the response. Dose response data was fitted using a 3-parameter hill function of the form Response = Bottom + (Top – Bottom)/(1 + (EC50/concentration)) to determine EC50 values. Percentage efficacy was calculated using the following formula: (max response – neg control)/(C1 response – neg control).

[1] = Hepatocyte stability, mouse; assay type: in vitro ADME; conditions: mouse hepatocytes
Description: The hepatocyte stability assay was performed by incubation of test compound at 1 μM, 0.03% DMSO in modified Krebs–Henseleit buffer with suspension of pooled cryopreserved hepatocytes (BioIVT, Hicksville, NY, USA) from mouse, rat, dog, or human (BioIVT, Hicksville, NY, USA) at 0.5 million viable hepatocytes/mL. Before adding the hepatocytes (time zero) and after 10, 20, 45, 90, 120, and 180 min of incubation (n = 2) at 37 °C while gently shaking, the reaction was stopped and proteins were precipitated with an excess of acetonitrile containing an internal standard. The samples were mixed, centrifuged, and filtered, and the supernatant was analyzed by liquid chromatography–mass spectrometry/mass spectrometry (LC–MS/MS). The instrument responses (peak areas/IS peak areas) were referenced to the zero-time point samples (considered as 100%) in order to determine the percentage of compound remaining.

CYP2C19 = target: T2, CYP2C19 (Homo sapiens, UniProt P33261); assay: CYP reversible inhibition in HLM, CYP2C19; assay type: in vitro ADME; conditions: probe S-mephenytoin
T2 construct: tissue BD Gentest; host or cells: human liver microsomes
Description: Test compounds were diluted in methanol and then added to mixture containing 50 mM potassium phosphate buffer, pH 7.4, human liver microsomes (BD Gentest) and probe substrate. After prewarming for 5 min at 37 °C, the reaction was started by adding cofactor mix (7.65 mg/mL glucose-6-phosphate, 1.7 mg/mL NADP, 6 U/mL of glucose-6-phosphate dehydrogenase), resulting in seven final concentrations of test compounds in the range 0.14–100 μM (2% methanol). Isoform specific conditions regarding probe substrate and microsomal protein concentrations are available in Table 2. Final concentrations of cofactor mix components were as follows: 1.56 mg/mL glucose-6-phosphate, 0.34 mg/mL NADP, and 1.2 U/mL glucose-6-phosphate dehydrogenase. After incubation at 37 °C, the reaction was terminated with acetonitrile:methanol (2:1) solution with internal standard. Samples were centrifuged, and the supernatant fractions were analyzed by LC-MS/MS. The instrument responses (test compounds and internal standard peak areas) were referenced to those for solvent controls (assumed as 100%) in order to determine the percentage reduction in probe metabolism. Percent of control activity vs concentration plots were generated and fitted using GraphPad Prism software to generate IC50.

Thermodynamic solubility = assay type: physicochemical
Description: Dry matter of compound was dissolved at 1 mg/mL in buffers at different pH (Fasted simulated gastric fluid and pH 7.4) in glass vials. After 24 h of stirring at room temperature, a sample is taken, centrifuged for 10 min at 10,000 rpm, and filtered. The samples were diluted in duplicate in DMSO (F100 and F10). Then, a final dilution (F100) in 80/20 water/acetonitrile containing the internal standard was used for the LCMS-MS analysis.
A standard curve was made ranging from a 200,000–75 ng/mL stock in DMSO, freshly prepared from dry matter. The standard curve and quality controls were diluted in an F100 in 80/20 water/acetonitrile (with internal standard) and analyzed on LC/MS-MS. The peak areas of the standard curve are plotted in a graph, and a linear or polynomial of the second order equation is used to calculate the unknown concentrations of the test compound.

[2] = Measured pKa (potentiometric and UV methods); assay type: physicochemical; conditions: measured at Charles River

T1 sequence (P13569 with tags, fused parts or gaps DEL508-508): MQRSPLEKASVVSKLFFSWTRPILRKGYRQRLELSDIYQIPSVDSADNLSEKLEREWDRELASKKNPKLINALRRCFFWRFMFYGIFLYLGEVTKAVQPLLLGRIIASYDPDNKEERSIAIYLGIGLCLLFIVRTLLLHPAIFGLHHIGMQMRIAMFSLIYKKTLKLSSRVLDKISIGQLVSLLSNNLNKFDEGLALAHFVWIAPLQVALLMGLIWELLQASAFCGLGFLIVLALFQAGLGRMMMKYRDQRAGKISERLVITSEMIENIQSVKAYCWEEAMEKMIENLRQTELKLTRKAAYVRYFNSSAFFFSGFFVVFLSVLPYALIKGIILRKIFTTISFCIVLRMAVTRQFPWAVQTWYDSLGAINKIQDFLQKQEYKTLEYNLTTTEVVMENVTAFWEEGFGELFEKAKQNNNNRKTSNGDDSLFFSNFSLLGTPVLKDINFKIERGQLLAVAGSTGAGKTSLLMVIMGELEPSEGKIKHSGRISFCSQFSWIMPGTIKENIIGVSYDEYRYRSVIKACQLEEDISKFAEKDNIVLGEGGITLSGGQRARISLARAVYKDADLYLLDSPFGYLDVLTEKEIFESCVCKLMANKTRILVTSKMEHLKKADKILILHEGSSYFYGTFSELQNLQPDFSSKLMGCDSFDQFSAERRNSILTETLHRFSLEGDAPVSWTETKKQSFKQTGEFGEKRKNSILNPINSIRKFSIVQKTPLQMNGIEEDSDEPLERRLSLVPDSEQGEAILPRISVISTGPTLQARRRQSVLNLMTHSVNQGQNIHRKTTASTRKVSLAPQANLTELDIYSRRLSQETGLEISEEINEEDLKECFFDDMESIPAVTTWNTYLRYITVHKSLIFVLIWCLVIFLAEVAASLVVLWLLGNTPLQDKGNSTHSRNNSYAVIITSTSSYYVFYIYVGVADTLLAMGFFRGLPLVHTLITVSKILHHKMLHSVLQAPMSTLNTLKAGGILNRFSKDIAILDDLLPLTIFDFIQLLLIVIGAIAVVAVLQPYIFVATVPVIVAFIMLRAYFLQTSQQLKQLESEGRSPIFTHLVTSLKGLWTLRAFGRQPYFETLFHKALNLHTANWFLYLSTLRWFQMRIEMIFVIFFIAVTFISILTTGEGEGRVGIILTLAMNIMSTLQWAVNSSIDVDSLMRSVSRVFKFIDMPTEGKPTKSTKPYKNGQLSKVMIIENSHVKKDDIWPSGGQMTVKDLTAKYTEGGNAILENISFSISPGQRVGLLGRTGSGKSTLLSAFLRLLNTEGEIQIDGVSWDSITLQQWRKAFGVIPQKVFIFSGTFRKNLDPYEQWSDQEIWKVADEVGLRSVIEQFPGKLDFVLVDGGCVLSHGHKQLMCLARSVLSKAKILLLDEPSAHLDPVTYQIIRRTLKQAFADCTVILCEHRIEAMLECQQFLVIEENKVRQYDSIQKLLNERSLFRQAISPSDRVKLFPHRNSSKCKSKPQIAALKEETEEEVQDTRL
T2 sequence (P33261 whole entry): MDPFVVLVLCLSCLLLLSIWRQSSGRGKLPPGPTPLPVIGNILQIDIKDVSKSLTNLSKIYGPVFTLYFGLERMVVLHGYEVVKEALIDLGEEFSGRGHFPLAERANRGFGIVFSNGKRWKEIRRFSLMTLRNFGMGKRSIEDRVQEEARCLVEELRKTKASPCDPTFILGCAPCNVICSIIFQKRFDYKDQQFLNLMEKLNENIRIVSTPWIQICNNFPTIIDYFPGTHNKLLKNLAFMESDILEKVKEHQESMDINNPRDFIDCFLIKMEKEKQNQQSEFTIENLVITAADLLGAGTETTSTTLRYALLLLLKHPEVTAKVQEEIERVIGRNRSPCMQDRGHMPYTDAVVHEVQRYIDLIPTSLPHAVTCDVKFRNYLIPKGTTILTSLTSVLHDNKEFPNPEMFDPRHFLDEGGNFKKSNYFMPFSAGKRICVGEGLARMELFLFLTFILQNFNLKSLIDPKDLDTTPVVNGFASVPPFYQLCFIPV

SMILES	Emax (ΔF508 CFTR) [%]	EC50 (ΔF508 CFTR) [nM]	increase in F508del CFTR activity (ΔF508 CFTR; addition to the combination of potentiator GLPG1837 and C1 corrector 4) [fold]	Hepatocyte stability: %LBF mouse [1] [%LBF]	Hepatocyte stability: predicted hepCl mouse ([1]; 1 µM) [mL/min/kg]	IC50 (CYP2C19) [nM]	solubility thermodynamic at 24 h (Thermodynamic solubility; buffer pH 7.4, pH 7.4, read-out: thermodynamic solubility pH 7.4) [µg/mL]	solubility thermodynamic at 24 h (Thermodynamic solubility; fasted simulated gastric fluid, read-out: thermodynamic solubility FASSGF) [µg/mL]	pKa ([2]; UV method, read-out: measured acylsulfonamyl pKa)	pKa ([2]; UV method, read-out: measured piperidine pKa)	pKa ([2]; potentiometric method, read-out: measured acylsulfonamyl pKa)	pKa ([2]; potentiometric method, read-out: measured piperidine pKa)
CN(C)S(=O)(=O)NC(=O)c1cc(N2CCC(N3CCOCC3)CC2)c2c(C3CCC3)nn(-c3ccc(F)cc3)c2n1 [Compound 51]	371	67										
COC1CCN(C2CCN(c3cc(C(=O)NS(=O)(=O)N(C)C)nc4c3c(C3CCC3)nn4-c3ccc(F)cc3)CC2)CC1 [Compound 52, 3-Cyclobutyl-N-(N,N-dimethylsulfamoyl)-1-(4-fluorophenyl)-4-(4-methoxy-[1,4′-bipiperidin]-1′-yl)-1H-pyrazolo[3,4-b]pyridine-6-carboxamide]	467	47	8	24	31.7	> 33000	9.9 (≈ 16.1 µM)	10.9 (≈ 17.8 µM)	4.74	8.51	4.96	8.42

— PMC11017246, “Discovery of GLPG2737, a Potent Type 2 Corrector of CFTR for the Treatment of Cystic Fibrosis in Combination with a Potentiator and a Type 1 Co-corrector” (Journal of Medicinal Chemistry, 2024)
